Data set [1] can be described thus: Plasma clearance in rat. Type of data set: ADME, organism-based.
Data set [2] can be described thus: Volume of distribution in dog. Type of data set: ADME, organism-based, Canis lupus familiaris. The settings on record: in vivo.
The nature of data set [3]: Oral bioavailability in dog. The format is ADME, organism-based, Canis lupus familiaris. The settings on record: in vivo.
Data set [4] has as its target T1, 3-oxo-5-alpha-steroid 4-dehydrogenase 2 (Homo sapiens) (UniProt P31213).
T1 sequence (whole entry): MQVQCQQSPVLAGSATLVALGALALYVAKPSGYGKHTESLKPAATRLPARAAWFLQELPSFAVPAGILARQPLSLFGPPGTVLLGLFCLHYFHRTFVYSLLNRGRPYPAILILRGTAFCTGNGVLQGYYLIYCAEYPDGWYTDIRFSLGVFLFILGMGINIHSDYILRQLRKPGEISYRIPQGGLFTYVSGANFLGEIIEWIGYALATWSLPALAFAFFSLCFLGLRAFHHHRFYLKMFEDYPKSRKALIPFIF
Briefly: Compound was tested in vitro for its inhibitory activity against human 5Alpha-R2 expressed as potency.

Data set [5] in a line: Volume of distribution in rat. Type of data set: ADME, organism-based. The settings on record: in vivo.
In data set [6] the target is T2, 3-oxo-5-alpha-steroid 4-dehydrogenase 1 (Homo sapiens) (UniProt P18405).
T2 sequence (whole entry): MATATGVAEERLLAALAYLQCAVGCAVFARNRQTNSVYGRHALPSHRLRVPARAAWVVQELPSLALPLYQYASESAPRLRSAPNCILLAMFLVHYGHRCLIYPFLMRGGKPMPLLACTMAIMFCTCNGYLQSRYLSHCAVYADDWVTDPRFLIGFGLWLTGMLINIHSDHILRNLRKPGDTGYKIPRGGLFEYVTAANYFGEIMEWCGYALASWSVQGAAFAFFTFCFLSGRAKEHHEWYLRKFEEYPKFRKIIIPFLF
Description: Compound was tested in vitro for its inhibitory activity against human 5Alpha-R1 expressed as potency.

A short description of data set [7]: Oral bioavailability in rat. The format is ADME, organism-based. The settings on record: in vivo.
Data set [8] can be described thus: Half-life in rat plasma. Type of data set: ADME, organism-based.
Data set [9] addresses Steroid 5-alpha-reductase (Rattus norvegicus) (UniProt P24008+P31214). Description: Compound was tested in vitro for its inhibitory activity against rat 5Alpha-R expressed as potency. The format is protein assay.
Data set [10] is described as follows: Plasma clearance in dog. Type of data set: ADME, organism-based, Canis lupus familiaris.

Chain of Steroid 5-alpha-reductase (Rattus norvegicus) (P24008 whole entry, looked up): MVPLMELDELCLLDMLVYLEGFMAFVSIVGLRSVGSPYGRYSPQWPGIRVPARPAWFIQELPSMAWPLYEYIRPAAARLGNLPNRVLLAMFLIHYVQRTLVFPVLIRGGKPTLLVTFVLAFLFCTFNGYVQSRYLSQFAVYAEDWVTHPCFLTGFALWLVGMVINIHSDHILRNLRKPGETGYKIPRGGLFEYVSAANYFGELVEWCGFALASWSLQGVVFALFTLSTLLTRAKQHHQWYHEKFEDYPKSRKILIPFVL
Chain of Steroid 5-alpha-reductase (Rattus norvegicus) (P31214 whole entry, looked up): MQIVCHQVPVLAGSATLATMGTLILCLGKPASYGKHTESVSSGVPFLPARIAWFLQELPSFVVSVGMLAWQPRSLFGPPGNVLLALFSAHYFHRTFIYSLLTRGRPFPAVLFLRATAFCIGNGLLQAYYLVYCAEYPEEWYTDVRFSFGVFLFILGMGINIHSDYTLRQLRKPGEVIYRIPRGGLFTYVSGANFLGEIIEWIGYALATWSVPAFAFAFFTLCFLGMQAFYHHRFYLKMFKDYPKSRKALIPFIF

In the case of `CC(C)Cc1ccc([C@H](C)Oc2ccc(C(=O)c3cn(CCCC(=O)O)c4ccccc34)cc2)cc1`, the clearance in data set [1] was 11 mL/min/kg; in [10] it was 2.4 mL/min/kg. Further, the Vd in data set [2] came out at 0.9 L/kg; in data set [5] it was 3.6 L/kg. Further, the bioavailability was determined as 86% in [3] and 56% in data set [7]. In addition, the Potency was determined as 4 nM in data set [4], 40 nM in [6] and 1 nM in data set [9]. In data set [8], this molecule gave a half-life of 3.7 h.
For the molecule `Cc1c(O[C@@H](C)c2ccc(CC(C)C)cc2)ccc(C(=O)Nc2ccccc2OCCCC(=O)O)c1C`, in [4], the Potency is 256 nM.
As to `CCCc1ccc(OC(C)c2ccc(C(=O)c3cn(CCCC(=O)O)c4ccccc34)cc2)cc1` (stereo unspecified), the Potency amounted to 10 nM in data set [4], 8 nM in data set [6] and 5 nM in data set [9].
With `CC(C)Cc1ccc([C@@H](C)Oc2ccc(C(=O)c3cn(CCCC(=O)O)c4ccccc34)cc2)cc1`, the values for the Potency in [4], in [6] and in data set [9] were 69 nM, 574 nM and 30 nM, respectively.
For `CC(C)Cc1ccc([C@]2(C)Oc3ccc(C(=O)c4cn(CCCC(=O)O)c5ccccc45)cc3O2)cc1` the same measures were 23 nM, 25 nM and 9 nM.
`O=C(O)CCCn1cc(C(=O)c2ccc3c(c2)OC(c2ccccc2)(c2ccccc2)O3)c2ccccc21`: the values for the Potency in [4], in data set [6] and in [9] were 34 nM, 23 nM and 3 nM, respectively.
For `CC(C)Cc1ccc(C(C)Oc2ccc(C(=O)N3CC(CCCC(=O)O)c4ccccc43)cc2)cc1` (stereo unspecified) the same measures were 481 nM, 113 nM and 24 nM.

As usually defined, the clearance is a measure of how efficiently the substance is removed, as volume per time. By Vd is commonly meant a proportionality between amount in the body and measured concentration, not a real space. A word on the bioavailability: it is the share of a dose that reaches the circulation, judged against a reference dose that is usually intravenous. Low values mean little systemic uptake, high ones much systemic uptake. A word on the half-life: it is the time needed for the level to fall by half in the phase considered. A high value points to slow decline.

The values are drawn from ChEMBL document CHEMBL1129106, “The development of non-steroidal dual inhibitors of both human 5-reductase isozymes” (Bioorg Med Chem Lett, 1996).
